Tests used:
[1] = test system: endogenous ATP receptor expressed by CHO-K1 cell; assay: ATP-stimulated light emission in CHO-K1 cells transfected with Photin DNA; type: cell-based; conditions: two different concentrations of ATP (FIG. 3A)
Protocol: Cell transfection, harvesting, and Photin expression were performed as described in Example 1. Cells were treated with two different concentration of ATP. (B) The CHO-K1 cells transfected with Obelin DNA were used as positive control. Luminescence is expressed in RLU (relative light units).
3.1 Photin-expressing clones have been obtained by transfection of CHO-K1 cells (Materials and Methods). Two days after transfection the cells were trypsinized and diluted 10 or 100 times. Once the cells were grown up to well isolated colonies, the colonies were transferred to new plates and selected on the basis of their functional response (luminescent signal) to different concentration of ATP, which is known to stimulate the CHO endogenous receptor and to rise the cytoplasmic Ca^++ concentration. At the end of each experiment, cells were lysed by perfusion of a solution containing TritonX-100 and CaCl2. The active photoprotein was reconstituted incubating the cells with 10 μM coelenterazine diluted in PBS containing 2 mM calcium, in the dark at 37° C. in a 5% CO2 atmosphere for 3 hrs. For light emission measurement, cells were lysed in the presence of calcium and the emitted luminescence recorded. […] To detect changes in calcium concentrations, 10, 50 and 100 μM ATP were injected and the kinetics of calcium response determined. […]

[2] = molecular target: T1, rat VR1 capsaicin receptor (Rattus norvegicus, UniProt O35433); assay: Capsaicin-stimulated flash luminescence in CHO cells expressing Apophotin and rat VR1; type: cell-based; conditions: 10 and 50 μM capsaicin; CHO cells with Apophotin and rat VR1 (FIG. 5)
T1 construct: expressed in transfected cells; host or cells: CHO
Protocol: The specific agonist, capsaicin, was used at a concentration of 10 and 50 μM.
3.3 CHO cell lines expressing both Apophotin and the rat VR1 capsaicin receptor—a calcium-permeable ion channel—were grown to 80-95% confluence in tissue culture flasks and harvested by trypsinization. Cells were dispensed at 10,000 cells/well in a 96-well white plates in growth medium and incubated overnight at 37° C. in a humidified incubator at 5% CO2. For luminescence experiments, the cells were loaded with coelenterazine 10 μM for 3 h at 37° C., 5% CO2. Calcium response was stimulated by addition of 10 and 50 μM capsaicin to each well. The kinetics of flash luminescence was followed using Labsystem Luminoskan Ascent, which injects reagents and records light emission from each single well.

T1 sequence (O35433 whole entry): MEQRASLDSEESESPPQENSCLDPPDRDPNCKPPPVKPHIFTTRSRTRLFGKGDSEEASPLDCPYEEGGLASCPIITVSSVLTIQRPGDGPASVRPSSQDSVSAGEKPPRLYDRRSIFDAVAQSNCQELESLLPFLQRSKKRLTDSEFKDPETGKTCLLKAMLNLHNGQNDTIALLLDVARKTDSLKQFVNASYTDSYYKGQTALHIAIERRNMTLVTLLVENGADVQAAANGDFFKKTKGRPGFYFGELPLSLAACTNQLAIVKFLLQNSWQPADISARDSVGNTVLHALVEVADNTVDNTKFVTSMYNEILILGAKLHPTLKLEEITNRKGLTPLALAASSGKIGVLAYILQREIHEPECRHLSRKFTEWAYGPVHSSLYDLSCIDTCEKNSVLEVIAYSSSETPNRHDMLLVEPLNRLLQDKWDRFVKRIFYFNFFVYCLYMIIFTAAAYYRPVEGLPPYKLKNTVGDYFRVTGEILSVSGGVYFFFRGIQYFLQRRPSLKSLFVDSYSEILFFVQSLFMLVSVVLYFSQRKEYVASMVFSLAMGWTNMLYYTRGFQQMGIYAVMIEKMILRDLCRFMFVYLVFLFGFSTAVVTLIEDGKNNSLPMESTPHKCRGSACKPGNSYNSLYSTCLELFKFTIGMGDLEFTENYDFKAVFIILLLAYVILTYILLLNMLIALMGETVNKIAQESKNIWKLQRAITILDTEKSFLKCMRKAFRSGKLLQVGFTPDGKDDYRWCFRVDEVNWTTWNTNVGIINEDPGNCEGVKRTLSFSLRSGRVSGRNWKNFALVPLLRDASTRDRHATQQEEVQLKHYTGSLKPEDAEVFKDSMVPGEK

For Nc1ncnc2c1ncn2[C@@H]1O[C@H](COP(=O)(O)OP(=O)(O)OP(=O)(O)O)[C@@H](O)[C@H]1O [ATP], the “light emission upon stimulation of the endogenous ATP receptor” value [1] was “dose dependent light emission”.

For COc1cc(CNC(=O)CCCC/C=C/C(C)C)ccc1O [capsaicin], the “time of peak level of luminescence signal” value [2] was “about 10 seconds” and the “time within which the rapid and transient luminescence signal occurred” value [2] was ≤ 30 s.
